Measurements published in patent publication US20100081679A1, “DIAMINOPYRIMIDINES AS FUNGICIDES” (Bayer CropScience AG, priority 2007, published 2010).
Marks after values point to notes of the source that are not given here. Blank lines part the entries; values can stand above or below the compound they belong to.

Test: logP determination via retention times, calibrated with unbranched alkan-2-ones
Format: physicochemical
Conditions: for chromatographic logP: pH 2.3, read-out: logP (pH2.3)
[1] = method **: HPLC reversed-phase C 18, 43° C., 0.1% aqueous phosphoric acid and acetonitrile, linear gradient 10% to 95% acetonitrile
[2] = method *: HPLC reversed-phase C18, 40° C., 0.1% aqueous formic acid and acetonitrile, linear gradient 10% to 95% acetonitrile
[3] = HPLC reversed-phase C 18, EEC Directive 79/831 Annex V.A8, method *: 40° C., 0.1% aqueous formic acid and acetonitrile, linear gradient 10% to 95% acetonitrile
[4] = method *: HPLC, reversed-phase C 18, 40° C., mobile phase 0.1% aqueous formic acid and acetonitrile, linear gradient from 10% to 95% acetonitrile
[5] = HPLC on reversed-phase C18, method *: 40° C., mobile phase 0.1% aqueous formic acid and acetonitrile, linear gradient 10% to 95% acetonitrile
[6] = HPLC on reversed-phase C18, method *: 40° C., 0.1% aqueous formic acid and acetonitrile, linear gradient 10% to 95% acetonitrile
[7] = method *: HPLC reversed-phase C 18, temperature 40° C., mobile phase 0.1% aqueous formic acid and acetonitrile, linear gradient 10% to 95% acetonitrile
[8] = HPLC on reversed-phase C18 column (EEC Directive 79/831 Annex V.A8), method *: 40° C., 0.1% aqueous formic acid and acetonitrile, linear gradient 10% to 95% acetonitrile
[9] = HPLC on reversed-phase C 18, EEC Directive 79/831 Annex V.A8, method *: 40° C., 0.1% aqueous formic acid and acetonitrile, linear gradient 10% to 95% acetonitrile
[10] = method **: HPLC reversed-phase C 18, temperature 43° C., mobile phase 0.1% aqueous phosphoric acid and acetonitrile, linear gradient 10% to 95% acetonitrile
[11] = HPLC on reversed-phase C 18, method **: 43° C., 0.1% aqueous phosphoric acid and acetonitrile, linear gradient 10% to 95% acetonitrile

Structure (SMILES): COc1cnc(Cl)nc1NC1CC1 [2-chloro-N-cyclopropyl-5-methoxypyrimidine-4-amine]
- chromatographic logP: 1.38

Structure (SMILES): O=C1CCCN1c1ccc(Nc2ncc(Br)c(NCC3CC3)n2)cc1 [compound 457]
- logP [1]: 1.59**
- logP [2]: 1.66*;

Structure (SMILES): CC(C)CCSc1cccc(Nc2ncc(Cl)c(NC3CC3)n2)c1.Cc1ccc(S(=O)(=O)O)cc1 [compound 441]
- logP [2]: 4.24*

Structure (SMILES): COC(=O)Cc1cccc(Nc2ncc(Cl)c(NC3CC3)n2)c1 [compound 290]
- logP [5]: 1.73*

Structure (SMILES): COC(=O)Nc1cccc(Nc2ncc(Br)c(NCC3CC3)n2)c1 [compound 458]
- logP [2]: 1.73*

Structure (SMILES): O=C1CCCN1c1ccc(Nc2ncc(F)c(NC3CC3)n2)cc1 [compound 593]
- logP [7]: 1.35*

Structure (SMILES): O=C1CCCN1c1cccc(Nc2ncc(C(F)(F)F)c(NC3CC3)n2)c1 [compound 255]
- logP [8]: 2.23*

Structure (SMILES): Cc1cnc(Cl)nc1NC1CC1 [2-chloro-N-cyclopropyl-5-methylpyrimidine-4-amine]
- chromatographic logP: 1.28

Structure (SMILES): Clc1ccc(Nc2ncc(Cl)c(NC3CC3)n2)cc1 [compound 285]
- logP [5]: 2.54*

Structure (SMILES): CSc1ccc(Nc2ncc(Cl)c(NC3CC3)n2)cc1C(F)(F)F [compound 322]
- logP [5]: 3.48*

Structure (SMILES): FC(F)C(F)(F)Oc1ccc(Nc2ncc(Br)c(NCC3CC3)n2)cc1 [compound 462]
- logP [2]: 2.8*

Structure (SMILES): Fc1ccc(Nc2ncc(Br)c(NC3CC3)n2)cc1 [compound 499]
- logP [9]: 1.96*

Structure (SMILES): O=S(=O)(c1ccc(Nc2ncc(Cl)c(NC3CC3)n2)cc1)N1CCOCC1 [compound 85]
- logP [2]: 2.68*

Structure (SMILES): FC(F)(F)Oc1cccc(Nc2ncc(Br)c(NC3CC3)n2)c1 [compound 301]
- logP [5]: 3.68*

Structure (SMILES): CNS(=O)(=O)c1ccc(Nc2ncc(Cl)c(NC3CC3)n2)cc1 [compound 21]
- logP [1]: 1.71**

Structure (SMILES): CCC(=O)Nc1cc(Nc2ncc(Br)c(NCC3CC3)n2)ccc1O [compound 494]
- logP [9]: 1.97*

Structure (SMILES): COC(=O)Nc1cccc(Nc2ncc(Br)c(NC3CC3)n2)c1 [compound 309]
- logP [5]: 1.61*

Structure (SMILES): FC(F)Sc1ccc(Nc2ncc(Br)c(NCC3CC3)n2)cc1 [compound 470]
- logP [9]: 3.07*

Structure (SMILES): Cc1ccc(S(=O)(=O)O)cc1.O=C1CCCN1c1ccc(Nc2ncc(Cl)c(NC3CC3)n2)cc1 [Example 89]
- logP [2]: 1.44*

Structure (SMILES): O=CNc1ccc(Nc2ncc(Cl)c(NCC3CC3)n2)cc1 [compound 544]
- logP [9]: 1.17*

Structure (SMILES): Oc1ccc(Nc2ncc(Br)c(NCC3CC3)n2)cc1F [compound 464]
- logP [2]: 1.53*

Structure (SMILES): Cc1cccc(C)c1Nc1ncc(Cl)c(NC2CC2)n1 [compound 273]
- logP [5]: 1.59*

Structure (SMILES): CC(C)(C)C(=O)Nc1ccc(Nc2ncc(Br)c(NC3CC3)n2)cc1 [compound 347]
- logP [5]: 1.83*

Structure (SMILES): C=CCNS(=O)(=O)c1ccc(Nc2ncc(Cl)c(NC3CC3)n2)cc1 [compound 31]
- logP [1]: 2.09**

Structure (SMILES): FC(F)C(F)(F)Oc1cccc(Nc2ncc(Cl)c(NCC3CC3)n2)c1 [compound 527]
- logP [9]: 2.95*

Structure (SMILES): NS(=O)(=O)c1ccc(Nc2ncc(Cl)c(NC3CC3)n2)cc1 [compound 25]
- logP [1]: 1.37**

Structure (SMILES): N#CCS(=O)(=O)c1ccc(Nc2ncc(Cl)c(NC3CC3)n2)cc1 [compound 62]
- logP [2]: 2.2*

Structure (SMILES): O=CNc1cccc(Nc2ncc(Cl)c(NCC3CC3)n2)c1 [compound 546]
- logP [9]: 1.46*

Structure (SMILES): CCOC(=O)Nc1cccc(Nc2ncc(Br)c(NCC3CC3)n2)c1 [compound 428]
- logP [2]: 1.99*

Structure (SMILES): Brc1ccc(Nc2ncc(Br)c(NCC3CC3)n2)cc1 [compound 472]
- logP [9]: 2.84*

Structure (SMILES): O=C1CCCN1c1ccc(Nc2ncc(C(F)(F)F)c(NC3CC3)n2)cc1 [compound 342]
- logP (HPLC on reversed-phase C18, method **: 43° C., mobile phase 0.1% aqueous phosphoric acid and acetonitrile, linear gradient 10% to 95% acetonitrile): 2.12**

Structure (SMILES): N#Cc1cccc(Nc2ncc(F)c(NC3CC3)n2)c1 [compound 571]
- logP [7]: 1.61*

Structure (SMILES): CC(C)(C)C(=O)Cc1ccc(Nc2ncc(Cl)c(NC3CC3)n2)cc1 [Example 59]
- logP [2]: 2.3*

Structure (SMILES): COc1ccc(Nc2ncc(Br)c(NCC3CC3)n2)cn1 [compound 191]
- logP [8]: 1.63*

Structure (SMILES): CN(C)S(=O)(=O)Oc1cccc(Nc2ncc(Cl)c(NC3CC3)n2)c1 [compound 244]
- logP [8]: 2.26*

Structure (SMILES): CNC(=O)Oc1cccc(Nc2ncc(C(F)(F)F)c(NC3CC3)n2)c1 [compound 659]
- logP [10]: 2.13**
- logP [7]: 2.06*;

Structure (SMILES): CCCOc1cccc(Nc2ncc(Cl)c(NC3CC3)n2)c1 [compound 531]
- logP [9]: 2.64*

Structure (SMILES): Oc1ccc(Nc2ncc(Cl)c(NC3CC3)n2)c(F)c1 [compound 294]
- logP [5]: 1.26*

Structure (SMILES): Clc1cccc(Nc2ncc(Cl)c(NC3CC3)n2)c1 [compound 1]
- logP [2]: 2.7*

Continued, values first:

- logP [3]: 1.16*
Structure (SMILES): O=C1CCCCN1c1cccc(Nc2ncc(F)c(NC3CC3)n2)c1 [compound 804]

- logP [4]: 1.55*
Structure (SMILES): COCc1cc(Nc2ncc(Cl)c(NC3CC3)n2)ccc1OC [compound 1050]

- logP [6]: 1.94*
Structure (SMILES): O=C(c1cccc(Nc2ncc(Cl)c(NC3CC3)n2)c1)N1CCCCC1 [compound 770]

- logP [4]: 1.84*
Structure (SMILES): CCN(CC)C(=O)c1ccc(Nc2ncc(Cl)c(NC3CC3)n2)cc1 [compound 984]

- logP [6]: 2.36*
Structure (SMILES): FC(F)Oc1ccccc1Nc1ncc(Cl)c(NC2CC2)n1 [compound 943]

- logP [3]: 2.63*
Structure (SMILES): O=[N+]([O-])c1cccc(Nc2ncc(Cl)c(NC3CC3)n2)c1 [compound 788]

- logP [6]: 2.5*
Structure (SMILES): CCCc1ccc(Nc2ncc(Cl)c(NC3CC3)n2)cc1 [compound 953]

- logP [6]: 1.73*
Structure (SMILES): COCc1cccc(Nc2ncc(C(F)F)c(NCC3CC3)n2)c1 [compound 772]

- logP [3]: 2.6*
Structure (SMILES): ClC1(Cl)CC1CNc1nc(Nc2ccccc2)ncc1Br (stereo not shown) [compound 808]

- logP [6]: 2.13*
Structure (SMILES): CCc1ccc(Nc2ncc(Cl)c(NC3CC3)n2)cc1 [compound 951]

- logP (HPLC reversed-phase C 18, EEC Directive 79/831 Annex V.A8, method **: 43° C., 0.1% aqueous phosphoric acid and acetonitrile, linear gradient 10% to 95% acetonitrile): 3.34**
Structure (SMILES): Brc1cnc(Nc2cccc(I)c2)nc1NC1CC1 [compound 860]

- logP [6]: 2.68*
Structure (SMILES): CC(=O)CCc1cccc(Nc2ncc(C(F)(F)F)c(NC3CC3)n2)c1 [compound 959]

- logP [10]: 2.8**
- logP [7]: 2.7*;
Structure (SMILES): CC(=O)c1ccc(Nc2ncc(C(F)(F)F)c(NC3CC3)n2)cc1 [compound 656]

- logP [4]: 3.18*
Structure (SMILES): Clc1cnc(Nc2cccc(C3CCCC3)c2)nc1NC1CC1 [compound 1066]

- logP [6]: 2.46*
Structure (SMILES): Clc1cnc(Nc2ccccc2-c2ccccc2)nc1NC1CC1 [compound 900]

- logP [6]: 1.99*
Structure (SMILES): Brc1cnc(Nc2ccc(-c3cscn3)cc2)nc1NC1CC1 [compound 747]

- logP [11]: 1.82**
- logP [6]: 1.71*;
Structure (SMILES): CC(=O)Nc1cc(Nc2ncc(C(F)(F)F)c(NC3CC3)n2)ccc1C [compound 662]

- logP [6]: 1.56*
Structure (SMILES): FC(F)c1cnc(Nc2ccccc2)nc1NC1CC1 [compound 722]

- logP [4]: 4.92*
Structure (SMILES): CCC(CC)c1ccc(Nc2ncc(C(F)(F)F)c(NC3CC3)n2)cc1 [compound 1032]

- logP [6]: 3.03*
Structure (SMILES): FC(F)(F)c1cccc(Nc2ncc(Cl)c(NC3CC3)n2)c1 [compound 950]

- logP [6]: 2.7*
Structure (SMILES): Brc1ccc(Nc2ncc(Br)c(NC3CC3)n2)cc1 [compound 743]

- logP [6]: 1.47*
Structure (SMILES): O=C1CCCCN1c1cccc(Nc2ncc(Cl)c(NC3CC3)n2)c1 [compound 713]

- logP [6]: 2.39*
Structure (SMILES): CC(C)(C)C(=O)Cc1ccc(Nc2ncc(Cl)c(NCC3CC3)n2)cc1 [compound 676]

- logP [3]: 2.46*
Structure (SMILES): Clc1cnc(Nc2ccccc2)nc1NCC1CC1(Cl)Cl (stereo not shown) [compound 800]

- logP [6]: 2.21*
Structure (SMILES): FC(F)Oc1ccc(Nc2ncc(Br)c(NC3CC3)n2)cc1 [compound 748]

- logP [7]: 2.77*
Structure (SMILES): O=S(=O)(c1cccc(Nc2ncc(C(F)(F)F)c(NC3CC3)n2)c1)N1CCCCC1 [compound 654]

- logP [6]: 3.03*
Structure (SMILES): CSc1ccc(Nc2ncc(Br)c(NC3CC3)n2)cc1Cl [compound 746]

- logP [7]: 2.58*
Structure (SMILES): N#Cc1cnc(Nc2ccc(F)cc2)nc1NC1CC1 [compound 616]

- logP [11]: 3.6**
Structure (SMILES): CSc1cccc(Nc2ncc(Cl)c(N(C)CC3CC3)n2)c1 [compound 968]

- logP [6]: 1.71*
Structure (SMILES): COc1cc(Nc2ncc(Br)c(NC3CC3)n2)cc(OC)c1OC [compound 761]

- logP [3]: 1.63*
Structure (SMILES): O=C1OCCN1c1cccc(Nc2ncc(Cl)c(NCC3CC3)n2)c1 [compound 861]

- logP [7]: 1.83*
Structure (SMILES): CN(C)C(=O)c1cccc(Nc2ncc(C#N)c(NC3CC3)n2)c1 [compound 614]

- logP [3]: 1.79*
Structure (SMILES): Cc1ccc(Nc2ncc(Cl)c(NC3CC3)n2)cc1CC#N [compound 819]

- logP [6]: 2.91*
Structure (SMILES): Fc1ccc(F)c(Nc2ncc(Cl)c(NC3CC3)n2)c1 [compound 948]

- logP [3]: 1.2*
Structure (SMILES): O=C1COCCN1c1cccc(Nc2ncc(Cl)c(NC3CC3)n2)c1 [compound 791]

- logP [7]: 2.95*
Structure (SMILES): N#Cc1cccc(Nc2ncc(C(F)(F)F)c(NC3CC3)n2)c1 [compound 638]

- logP [6]: 2.16*
Structure (SMILES): O=S(=O)(c1cccc(Nc2ncc(Cl)c(NCC3CC3)n2)c1)N1CCCCC1 [compound 675]

- logP [7]: 1.91*
Structure (SMILES): O=C(NCC(F)(F)F)c1cccc(Nc2ncc(Br)c(NC3CC3)n2)c1 [compound 622]

- logP [6]: 2.18*
Structure (SMILES): CSc1ccc(Nc2ncc(Cl)c(NCC3CC3)n2)cc1 [compound 674]
